Measured values as given in BindingDB's records for doi:10.1038/nchembio.1629 (George Washington University, 2014).

Assays:
[1] = target: T1, Mitogen-activated protein kinase 3 (Homo sapiens, UniProt P27361); test: ITC; details: pH 7.5; 15 °C
Experimental: (§1) For ERK1 and ERK2, the buffer contained 20 mM HEPES (pH 7.5), 150 mM NaCl and 0.5 mM TCEP. For haspin, the buffer contained 20 mM HEPES (pH 7.5), 250 mM NaCl and 0.5 mM TCEP. Titration was performed at 15 °C by injecting 100 µM protein into a reaction cell containing the inhibitors (7 µM).

[2] = target: T2, Serine/threonine-protein kinase haspin [465-798] (Homo sapiens, UniProt Q8TF76); test: ITC; details: pH 7.5; 15 °C
T2 construct: 465-798
T2 sequence (Q8TF76 whole entry): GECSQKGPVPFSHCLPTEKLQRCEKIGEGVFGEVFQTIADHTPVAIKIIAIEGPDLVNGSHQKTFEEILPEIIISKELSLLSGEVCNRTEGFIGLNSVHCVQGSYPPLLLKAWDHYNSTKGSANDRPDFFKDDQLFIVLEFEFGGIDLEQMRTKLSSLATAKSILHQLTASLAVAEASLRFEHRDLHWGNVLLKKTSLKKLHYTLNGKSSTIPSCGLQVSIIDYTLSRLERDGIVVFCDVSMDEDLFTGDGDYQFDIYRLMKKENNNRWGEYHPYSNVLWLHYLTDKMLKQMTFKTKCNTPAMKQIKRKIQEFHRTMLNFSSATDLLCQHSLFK
Experimental: as §1

[3] = target: Mitogen-activated protein kinase 9 (Homo sapiens, UniProt P45984); test: Selectivity screening
Experimental: (§2) The IC50 values of selected kinases were determined using either Z'LYTE, Adapta or LanthaScreen assays.

[4] = target: T3, Serine/threonine-protein kinase D1 (Homo sapiens, UniProt Q15139); test: Selectivity screening
T3 sequence (Q15139 whole entry): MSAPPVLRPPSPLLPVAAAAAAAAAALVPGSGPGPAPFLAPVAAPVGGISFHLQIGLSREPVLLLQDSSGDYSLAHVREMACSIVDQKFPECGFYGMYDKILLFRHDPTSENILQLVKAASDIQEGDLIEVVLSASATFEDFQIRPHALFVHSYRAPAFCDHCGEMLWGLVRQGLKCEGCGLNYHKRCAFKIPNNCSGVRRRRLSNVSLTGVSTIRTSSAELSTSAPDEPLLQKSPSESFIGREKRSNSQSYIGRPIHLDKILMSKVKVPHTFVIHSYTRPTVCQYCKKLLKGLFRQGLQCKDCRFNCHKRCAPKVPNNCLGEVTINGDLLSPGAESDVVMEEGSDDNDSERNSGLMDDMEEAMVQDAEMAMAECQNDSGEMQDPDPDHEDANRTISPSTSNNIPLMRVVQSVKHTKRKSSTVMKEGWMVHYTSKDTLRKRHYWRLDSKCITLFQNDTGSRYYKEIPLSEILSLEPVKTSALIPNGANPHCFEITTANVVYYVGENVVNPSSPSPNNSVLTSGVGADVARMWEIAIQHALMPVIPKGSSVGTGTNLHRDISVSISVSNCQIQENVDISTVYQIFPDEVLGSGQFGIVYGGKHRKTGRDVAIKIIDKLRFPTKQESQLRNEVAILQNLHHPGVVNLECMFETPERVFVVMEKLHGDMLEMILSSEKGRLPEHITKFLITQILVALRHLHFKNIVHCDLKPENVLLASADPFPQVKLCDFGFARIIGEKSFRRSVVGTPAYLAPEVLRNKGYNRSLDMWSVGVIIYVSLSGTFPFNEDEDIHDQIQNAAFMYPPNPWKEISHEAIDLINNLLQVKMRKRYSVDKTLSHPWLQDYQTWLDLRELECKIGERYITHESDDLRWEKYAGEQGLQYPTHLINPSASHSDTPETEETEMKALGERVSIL
Experimental: as §2

[5] = target: T4, Serine/threonine-protein kinase 17A (Homo sapiens, UniProt Q9UEE5); test: Selectivity screening
T4 sequence (Q9UEE5 whole entry): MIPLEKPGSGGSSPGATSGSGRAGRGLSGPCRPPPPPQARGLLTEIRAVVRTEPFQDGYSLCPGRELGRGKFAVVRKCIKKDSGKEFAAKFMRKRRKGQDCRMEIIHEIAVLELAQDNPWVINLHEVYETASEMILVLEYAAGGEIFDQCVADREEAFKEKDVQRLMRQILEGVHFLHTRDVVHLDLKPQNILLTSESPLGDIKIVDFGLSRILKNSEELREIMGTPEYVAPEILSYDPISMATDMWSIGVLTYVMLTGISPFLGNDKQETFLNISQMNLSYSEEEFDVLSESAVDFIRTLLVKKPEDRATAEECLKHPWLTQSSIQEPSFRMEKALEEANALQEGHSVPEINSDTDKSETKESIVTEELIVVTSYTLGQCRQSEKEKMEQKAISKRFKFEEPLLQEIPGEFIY
Experimental: as §2

[6] = target: Mitogen-activated protein kinase kinase kinase kinase 4 (Homo sapiens, UniProt O95819); test: Selectivity screening
Experimental: as §2

Misshapen-like kinase 1 = Misshapen-like kinase 1 (Homo sapiens, UniProt Q8N4C8); test: Selectivity screening
Experimental: as §2

Aurora kinase C = target: T5, Aurora kinase C (Homo sapiens, UniProt Q9UQB9); test: Selectivity screening
T5 sequence (Q9UQB9 whole entry): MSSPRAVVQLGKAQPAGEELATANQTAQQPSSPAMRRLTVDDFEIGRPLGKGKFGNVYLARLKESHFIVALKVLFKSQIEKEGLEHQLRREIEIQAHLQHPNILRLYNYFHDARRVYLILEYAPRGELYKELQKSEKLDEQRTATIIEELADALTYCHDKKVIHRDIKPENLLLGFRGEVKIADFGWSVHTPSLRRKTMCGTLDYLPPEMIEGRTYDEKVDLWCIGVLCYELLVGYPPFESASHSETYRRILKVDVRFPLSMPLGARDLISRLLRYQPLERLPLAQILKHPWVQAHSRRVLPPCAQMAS
Experimental: as §2

[7] = target: T1, Mitogen-activated protein kinase 3; test: Selectivity screening
Experimental: as §2

[8] = target: Dual specificity protein kinase CLK2 (Homo sapiens, UniProt P49760); test: Selectivity screening
Experimental: as §2

[9] = target: Casein kinase II subunit alpha' (Homo sapiens, UniProt P19784); test: Selectivity screening
Experimental: as §2

[10] = target: T6, Dual specificity mitogen-activated protein kinase kinase 3 (Homo sapiens, UniProt P46734); test: Selectivity screening
T6 sequence (P46734 whole entry): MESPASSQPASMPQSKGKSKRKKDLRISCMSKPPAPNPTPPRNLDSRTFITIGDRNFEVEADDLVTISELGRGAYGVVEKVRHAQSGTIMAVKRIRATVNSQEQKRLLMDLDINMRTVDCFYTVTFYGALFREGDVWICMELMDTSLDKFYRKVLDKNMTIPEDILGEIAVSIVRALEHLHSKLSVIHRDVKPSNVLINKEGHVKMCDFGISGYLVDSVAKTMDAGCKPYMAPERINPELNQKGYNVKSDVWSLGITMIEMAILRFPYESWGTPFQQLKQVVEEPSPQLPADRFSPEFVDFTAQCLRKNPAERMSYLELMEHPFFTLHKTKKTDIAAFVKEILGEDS
Experimental: as §2

[11] = target: T7, Dual specificity protein kinase TTK (Homo sapiens, UniProt P33981); test: Selectivity screening
T7 sequence (P33981 whole entry): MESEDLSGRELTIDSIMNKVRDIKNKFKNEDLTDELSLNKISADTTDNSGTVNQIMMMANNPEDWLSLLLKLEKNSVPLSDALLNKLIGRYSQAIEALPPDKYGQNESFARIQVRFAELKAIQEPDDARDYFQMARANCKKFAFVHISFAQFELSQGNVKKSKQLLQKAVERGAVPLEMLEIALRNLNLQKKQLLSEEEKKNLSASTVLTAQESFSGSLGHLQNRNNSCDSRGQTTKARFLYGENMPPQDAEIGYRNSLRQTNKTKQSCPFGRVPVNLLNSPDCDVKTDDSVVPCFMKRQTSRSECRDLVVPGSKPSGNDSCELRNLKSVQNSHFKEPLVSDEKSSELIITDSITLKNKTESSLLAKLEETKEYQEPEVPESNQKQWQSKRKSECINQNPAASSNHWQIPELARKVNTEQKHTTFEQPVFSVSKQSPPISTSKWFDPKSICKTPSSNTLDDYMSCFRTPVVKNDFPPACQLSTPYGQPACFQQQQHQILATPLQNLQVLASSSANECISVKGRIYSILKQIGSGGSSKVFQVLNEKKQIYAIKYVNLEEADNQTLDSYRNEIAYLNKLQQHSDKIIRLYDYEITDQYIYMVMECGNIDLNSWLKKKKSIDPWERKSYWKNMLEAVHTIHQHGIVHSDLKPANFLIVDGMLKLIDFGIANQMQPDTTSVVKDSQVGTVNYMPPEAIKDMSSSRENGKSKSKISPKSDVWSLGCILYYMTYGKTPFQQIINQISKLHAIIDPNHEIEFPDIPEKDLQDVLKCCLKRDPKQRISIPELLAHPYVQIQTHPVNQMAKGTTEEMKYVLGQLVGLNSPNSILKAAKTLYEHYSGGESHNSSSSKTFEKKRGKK
Experimental: as §2

[12] = target: T8, Mitogen-activated protein kinase 8 [1-363] (Homo sapiens, UniProt P45983); test: Selectivity screening
T8 construct: 1-363
Experimental: as §2

[13] = target: Mitogen-activated protein kinase 10 (Homo sapiens, UniProt P53779); test: Selectivity screening
Experimental: as §2

[14] = target: Dual specificity protein kinase CLK1 (Homo sapiens, UniProt P49759); test: Selectivity screening
Experimental: as §2

[15] = target: T2, Serine/threonine-protein kinase haspin [465-798]; test: Selectivity screening
Experimental: as §2

T1 sequence (P27361 whole entry): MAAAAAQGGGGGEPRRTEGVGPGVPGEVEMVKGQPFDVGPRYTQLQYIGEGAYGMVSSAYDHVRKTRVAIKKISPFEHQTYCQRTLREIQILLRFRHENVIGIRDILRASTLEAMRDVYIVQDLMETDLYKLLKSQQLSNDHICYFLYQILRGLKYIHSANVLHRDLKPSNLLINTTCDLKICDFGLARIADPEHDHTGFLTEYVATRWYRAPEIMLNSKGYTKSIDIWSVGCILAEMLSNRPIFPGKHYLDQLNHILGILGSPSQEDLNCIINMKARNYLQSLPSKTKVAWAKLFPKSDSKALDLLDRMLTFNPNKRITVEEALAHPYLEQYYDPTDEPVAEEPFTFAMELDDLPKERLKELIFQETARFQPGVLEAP
Mitogen-activated protein kinase 9, sequence (P45984 whole entry): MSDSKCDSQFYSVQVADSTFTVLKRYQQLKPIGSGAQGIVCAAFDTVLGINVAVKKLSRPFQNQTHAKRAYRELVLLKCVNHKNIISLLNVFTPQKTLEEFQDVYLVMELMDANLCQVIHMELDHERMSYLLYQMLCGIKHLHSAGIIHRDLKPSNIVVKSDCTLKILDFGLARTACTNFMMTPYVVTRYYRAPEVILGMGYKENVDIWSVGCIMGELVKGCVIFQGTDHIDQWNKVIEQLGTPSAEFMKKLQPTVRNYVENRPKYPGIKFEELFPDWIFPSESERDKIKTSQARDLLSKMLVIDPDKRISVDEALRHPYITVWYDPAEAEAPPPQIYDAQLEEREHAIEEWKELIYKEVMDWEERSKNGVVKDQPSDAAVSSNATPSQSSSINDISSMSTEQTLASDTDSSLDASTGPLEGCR
Misshapen-like kinase 1, sequence (Q8N4C8 whole entry): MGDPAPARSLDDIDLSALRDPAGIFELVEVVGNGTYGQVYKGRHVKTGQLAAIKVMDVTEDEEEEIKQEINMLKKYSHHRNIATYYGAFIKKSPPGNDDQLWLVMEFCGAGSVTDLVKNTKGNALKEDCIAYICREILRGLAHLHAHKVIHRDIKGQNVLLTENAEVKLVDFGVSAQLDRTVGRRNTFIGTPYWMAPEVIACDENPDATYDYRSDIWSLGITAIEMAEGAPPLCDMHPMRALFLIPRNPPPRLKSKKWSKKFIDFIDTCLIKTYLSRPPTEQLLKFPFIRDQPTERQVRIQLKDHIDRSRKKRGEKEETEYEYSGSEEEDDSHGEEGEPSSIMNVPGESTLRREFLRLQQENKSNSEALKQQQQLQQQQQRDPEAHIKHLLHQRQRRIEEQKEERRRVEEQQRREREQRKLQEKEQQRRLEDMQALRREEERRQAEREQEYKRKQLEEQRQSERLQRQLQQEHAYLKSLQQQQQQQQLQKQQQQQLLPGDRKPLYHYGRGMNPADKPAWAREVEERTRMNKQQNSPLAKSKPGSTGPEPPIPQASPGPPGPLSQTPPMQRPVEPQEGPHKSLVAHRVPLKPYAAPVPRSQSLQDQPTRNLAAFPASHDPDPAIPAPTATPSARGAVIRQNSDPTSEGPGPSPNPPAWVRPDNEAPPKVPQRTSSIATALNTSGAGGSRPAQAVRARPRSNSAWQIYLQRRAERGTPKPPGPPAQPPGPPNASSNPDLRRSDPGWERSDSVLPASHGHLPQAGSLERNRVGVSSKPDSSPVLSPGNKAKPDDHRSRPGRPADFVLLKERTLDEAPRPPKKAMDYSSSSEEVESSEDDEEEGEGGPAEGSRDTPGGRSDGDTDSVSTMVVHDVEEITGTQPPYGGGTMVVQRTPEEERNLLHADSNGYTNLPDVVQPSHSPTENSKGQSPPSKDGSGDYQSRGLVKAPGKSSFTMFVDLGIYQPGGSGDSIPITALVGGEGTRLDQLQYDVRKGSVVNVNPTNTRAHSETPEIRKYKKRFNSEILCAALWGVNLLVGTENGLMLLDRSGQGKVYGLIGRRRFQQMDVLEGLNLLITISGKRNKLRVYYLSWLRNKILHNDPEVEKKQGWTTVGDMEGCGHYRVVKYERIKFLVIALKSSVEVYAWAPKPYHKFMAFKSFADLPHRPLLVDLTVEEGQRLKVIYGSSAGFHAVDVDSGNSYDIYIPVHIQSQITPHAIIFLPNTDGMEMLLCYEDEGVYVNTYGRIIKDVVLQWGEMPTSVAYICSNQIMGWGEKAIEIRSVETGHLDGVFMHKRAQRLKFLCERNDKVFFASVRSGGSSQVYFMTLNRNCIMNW
Mitogen-activated protein kinase kinase kinase kinase 4, sequence (O95819 whole entry): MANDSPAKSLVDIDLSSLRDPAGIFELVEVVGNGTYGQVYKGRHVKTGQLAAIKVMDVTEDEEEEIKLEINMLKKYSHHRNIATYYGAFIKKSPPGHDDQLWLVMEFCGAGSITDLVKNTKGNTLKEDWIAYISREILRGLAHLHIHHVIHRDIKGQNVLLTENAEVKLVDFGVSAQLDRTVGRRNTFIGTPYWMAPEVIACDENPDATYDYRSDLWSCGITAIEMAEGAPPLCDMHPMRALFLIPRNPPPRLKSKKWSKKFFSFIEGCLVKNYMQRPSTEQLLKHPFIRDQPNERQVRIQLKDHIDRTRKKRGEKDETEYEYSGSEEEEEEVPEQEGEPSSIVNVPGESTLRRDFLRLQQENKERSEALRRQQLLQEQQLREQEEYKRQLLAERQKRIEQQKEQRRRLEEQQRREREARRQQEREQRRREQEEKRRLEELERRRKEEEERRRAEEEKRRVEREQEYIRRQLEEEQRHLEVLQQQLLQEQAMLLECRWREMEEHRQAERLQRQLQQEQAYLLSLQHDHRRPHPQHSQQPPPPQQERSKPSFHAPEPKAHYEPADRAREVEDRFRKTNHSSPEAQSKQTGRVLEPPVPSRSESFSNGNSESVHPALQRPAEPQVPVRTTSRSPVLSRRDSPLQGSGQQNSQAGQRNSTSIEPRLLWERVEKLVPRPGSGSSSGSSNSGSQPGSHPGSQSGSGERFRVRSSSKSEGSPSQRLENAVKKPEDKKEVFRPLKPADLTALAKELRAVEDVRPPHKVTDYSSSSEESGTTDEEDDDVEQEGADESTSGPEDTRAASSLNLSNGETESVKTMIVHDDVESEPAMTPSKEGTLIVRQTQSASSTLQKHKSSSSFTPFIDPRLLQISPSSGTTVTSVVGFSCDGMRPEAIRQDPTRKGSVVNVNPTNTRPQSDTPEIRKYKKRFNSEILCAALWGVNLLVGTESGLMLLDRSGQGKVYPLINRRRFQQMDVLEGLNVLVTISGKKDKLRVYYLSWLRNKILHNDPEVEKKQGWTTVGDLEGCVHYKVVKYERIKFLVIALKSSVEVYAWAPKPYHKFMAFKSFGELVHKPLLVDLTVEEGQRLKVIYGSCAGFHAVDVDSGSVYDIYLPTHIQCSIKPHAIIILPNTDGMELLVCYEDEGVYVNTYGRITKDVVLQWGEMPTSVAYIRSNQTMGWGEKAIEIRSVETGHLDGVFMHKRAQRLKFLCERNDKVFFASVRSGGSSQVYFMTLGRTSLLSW
Dual specificity protein kinase CLK1, sequence (P49759 whole entry): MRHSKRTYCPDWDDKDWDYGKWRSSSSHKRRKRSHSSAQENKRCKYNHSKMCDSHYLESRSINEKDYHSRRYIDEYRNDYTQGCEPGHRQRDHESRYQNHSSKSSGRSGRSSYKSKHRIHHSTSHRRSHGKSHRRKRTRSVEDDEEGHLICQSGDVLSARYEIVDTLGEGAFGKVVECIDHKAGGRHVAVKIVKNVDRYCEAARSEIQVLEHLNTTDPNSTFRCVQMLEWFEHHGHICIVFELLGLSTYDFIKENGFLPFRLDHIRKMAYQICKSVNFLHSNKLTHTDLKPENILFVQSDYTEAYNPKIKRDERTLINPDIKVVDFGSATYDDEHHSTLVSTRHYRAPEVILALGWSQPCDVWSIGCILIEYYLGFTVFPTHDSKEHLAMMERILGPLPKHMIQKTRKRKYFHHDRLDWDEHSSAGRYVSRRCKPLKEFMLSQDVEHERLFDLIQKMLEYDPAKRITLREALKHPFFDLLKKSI
T8 sequence (P45983 1-363): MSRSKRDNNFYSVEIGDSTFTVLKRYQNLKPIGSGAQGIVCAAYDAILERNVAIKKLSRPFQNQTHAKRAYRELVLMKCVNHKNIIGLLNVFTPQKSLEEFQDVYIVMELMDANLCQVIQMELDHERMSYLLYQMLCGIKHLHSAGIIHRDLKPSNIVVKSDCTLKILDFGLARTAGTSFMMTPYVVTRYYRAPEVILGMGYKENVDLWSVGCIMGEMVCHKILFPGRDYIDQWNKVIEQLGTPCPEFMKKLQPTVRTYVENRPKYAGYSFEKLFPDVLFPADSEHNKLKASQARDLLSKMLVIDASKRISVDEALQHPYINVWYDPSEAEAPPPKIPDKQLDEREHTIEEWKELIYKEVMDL
Dual specificity protein kinase CLK2, sequence (P49760 whole entry): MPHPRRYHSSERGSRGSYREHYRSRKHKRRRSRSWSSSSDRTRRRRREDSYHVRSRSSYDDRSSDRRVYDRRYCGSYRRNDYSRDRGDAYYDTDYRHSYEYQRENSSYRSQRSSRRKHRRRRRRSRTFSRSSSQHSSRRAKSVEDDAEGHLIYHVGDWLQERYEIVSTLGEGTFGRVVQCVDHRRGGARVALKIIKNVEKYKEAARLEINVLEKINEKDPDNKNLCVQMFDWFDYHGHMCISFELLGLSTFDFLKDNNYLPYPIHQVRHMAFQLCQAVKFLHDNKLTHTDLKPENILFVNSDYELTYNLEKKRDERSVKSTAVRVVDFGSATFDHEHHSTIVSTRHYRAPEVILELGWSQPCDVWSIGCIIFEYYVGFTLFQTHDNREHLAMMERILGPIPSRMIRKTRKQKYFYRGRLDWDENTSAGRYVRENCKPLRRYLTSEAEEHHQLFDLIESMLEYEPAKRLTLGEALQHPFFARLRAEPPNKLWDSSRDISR

- Kd [1]: 213 nM
- Kd [2]: 297 nM
- IC50 [3]: 783 nM
- IC50 [4]: 535 nM
- IC50 [5]: 114 nM
- IC50 [6]: 503 nM
- IC50 (Misshapen-like kinase 1): 942 nM
- IC50 (Aurora kinase C): 580 nM
- IC50 [7]: 8.3 nM
- IC50 [8]: 104 nM
- IC50 [9]: > 10 µM
- IC50 [10]: 304 nM
- IC50 [11]: 193 nM
- IC50 [12]: 1080 nM
- IC50 [13]: 632 nM
- IC50 [14]: 508 nM
- IC50 [15]: 398 nM
Structure (SMILES): O=C(Nc1ccc2[nH]nc(-c3ccncc3)c2c1)[C@H]1CCN(CC(=O)N2CCN(c3ccc(-c4ncccn4)cc3)CC2)C1 [SCH772984]
